Test results reported in patent US8796307B2, “Beta2-adrenoreceptor agonists” (Novartis AG, priority 1999, dated 2014).
pEC50: −log10 of the molar value. Where a name gives a salt, the structure may show the parent alone. Read-outs that look alike come from different tables or passages of the source.

Tests used:
[1] = biological target: β2-adrenoreceptor (Homo sapiens, UniProt P07550); experiment: cAMP determination in cells expressing β2-adrenoreceptor; type: cell-based; settings: read-out: EC50 (β2), binding potency measured by cAMP determination
Source text: (§1) Accordingly the invention also provides a compound of formula I in free, salt or solvate form for use as a pharmaceutical. […] The β2 agonist activity, onset of action and duration of action of the agents of the invention may be tested using the guinea pig tracheal stip in vitro assay according to the procedure of R. A. Coleman and A. T. Nials, J. Pharmacol. Methods (1989), 21(1), 71-86. The binding potency and selectivity for the β2-adrenoreceptor relative to the β1-adrenoreceptor can be measured by a classical filtration binding assay according to the procedure of Current Protocols in Pharmacology (S. J. Enna (editor-in-chief) et al, John Wiley & Son, Inc, 1998), or by cAMP determination in cells expressing β2- or β1-adrenoceptor, according to the procedure of B. January et al, British J. Pharmacol. 123: 701-711 (1998).

[2] = biological target: β1-adrenoreceptor (Homo sapiens, UniProt P08588); experiment: cAMP determination in cells expressing β1-adrenoreceptor; type: cell-based
Source text: as §1

[3] = test system: guinea pig tracheal strip; experiment: guinea pig tracheal strip in vitro assay
Source text: as §1

[4] = cells expressing β1-adrenoreceptor, read-out: EC50 (β1), binding potency measured by cAMP determination

Sequence of β2-adrenoreceptor (P07550 whole entry, species assumed): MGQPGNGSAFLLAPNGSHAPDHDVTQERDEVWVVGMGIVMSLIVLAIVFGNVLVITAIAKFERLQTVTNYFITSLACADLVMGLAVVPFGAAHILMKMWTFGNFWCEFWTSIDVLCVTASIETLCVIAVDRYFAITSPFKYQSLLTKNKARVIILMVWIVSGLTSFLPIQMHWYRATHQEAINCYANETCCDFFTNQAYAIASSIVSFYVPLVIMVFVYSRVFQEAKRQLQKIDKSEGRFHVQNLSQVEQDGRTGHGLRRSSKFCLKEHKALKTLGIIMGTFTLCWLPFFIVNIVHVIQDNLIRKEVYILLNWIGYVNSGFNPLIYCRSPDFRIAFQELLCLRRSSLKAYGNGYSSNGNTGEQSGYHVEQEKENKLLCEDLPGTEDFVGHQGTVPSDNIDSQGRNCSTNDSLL
Sequence of β1-adrenoreceptor (P08588 whole entry, species assumed): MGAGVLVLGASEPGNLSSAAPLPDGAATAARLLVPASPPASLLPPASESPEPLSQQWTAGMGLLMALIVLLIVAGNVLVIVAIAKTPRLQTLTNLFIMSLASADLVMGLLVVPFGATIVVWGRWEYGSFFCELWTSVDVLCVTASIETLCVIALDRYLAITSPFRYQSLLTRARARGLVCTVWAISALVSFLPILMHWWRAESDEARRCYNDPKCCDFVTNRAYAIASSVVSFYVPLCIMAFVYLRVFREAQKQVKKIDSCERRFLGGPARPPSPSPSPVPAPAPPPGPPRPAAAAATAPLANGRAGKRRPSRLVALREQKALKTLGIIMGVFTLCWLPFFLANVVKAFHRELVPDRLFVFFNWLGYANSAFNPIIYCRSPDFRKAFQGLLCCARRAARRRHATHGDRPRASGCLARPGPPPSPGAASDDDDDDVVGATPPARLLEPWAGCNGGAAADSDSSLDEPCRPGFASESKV

Row | SMILES | pEC50 [1] | pEC50 [2, 4] | other results
1 | COc1ccc(OC)c2c1CC(NC[C@H](O)c1ccc(O)c3[nH]c(=O)ccc13)C2 [Example 1, (R)-8-hydroxy-5-[2-(4,7-Dimethoxy-indan-2-ylamino)-1-hydroxy-ethyl]-1H-quinolin-2-one hydrochloride] | 9.04 | 8.02 | –
2 | CCc1cc2c(cc1CC)CC(NCC(O)c1ccc(O)c3[nH]c(=O)ccc13)C2 (stereo not shown) [Example 2, 8-hydroxy-5-[2-(5,6-diethyl-indan-2-ylamino)-1-hydroxy-ethyl]-1H-quinolin-2-one] | 9.64 | – | pEC50 [2]: 8.90; T(50%), time for inhibition of contraction to decay to 50% of its maximum value ([3]; at 71 nM concentration): > 400 min
3 | CCc1ccc(CC)c2c1CC(NC[C@H](O)c1ccc(O)c3[nH]c(=O)ccc13)C2 [Example 4] | 8.22 | 7.84 | T(50%), time for inhibition of contraction to decay to 50% of its maximum value ([3]; at 100 nM): 82 min
4 | O=c1ccc2c([C@@H](O)CNC3Cc4cc5c(cc4C3)CCCC5)ccc(O)c2[nH]1 [Example 5] | 9.10 | 8.21 | T(50%), time for inhibition of contraction to decay to 50% of its maximum value ([3]; at 100 nM): 444 min
5 | O=c1ccc2c([C@@H](O)CNC3Cc4cc5c(cc4C3)OCCO5)ccc(O)c2[nH]1 [Example 6] | 9.52 | 8.44 | –
6 | CC1(NC[C@H](O)c2ccc(O)c3[nH]c(=O)ccc23)Cc2cc3c(cc2C1)CCCC3 [Example 29, 8-Hydroxy-5-[(R)-1-hydroxy-2-(2-methyl-2,3,5,6,7,8-hexahydro-1H-cyclopenta[b]naphthalen-2-ylamino)-ethyl]-1H-quinolin-2-one] | – | – | T(50%), time for inhibition of contraction to decay to 50% of its maximum value ([3]; at 10 nM): 279 min

More lines, main results first:

Row | pEC50 [1] | pEC50 [2, 4] | SMILES | other results
7 | 9.24 | 8.07 | CCCc1cc2c(cc1CCC)CC(NC[C@H](O)c1ccc(O)c3[nH]c(=O)ccc13)C2 [Example 8] | –
8 | 10.92 | 9.30 | CC1(NC[C@H](O)c2ccc(O)c3[nH]c(=O)ccc23)Cc2ccccc2C1 [Example 27, 8-Hydroxy-5-[(R)-1-hydroxy-2-(2-methyl-indan-2-ylamino)-ethyl]-1H-quinolin-2-one] | T(50%), time for inhibition of contraction to decay to 50% of its maximum value ([3]; at 1.0 nM): 222 min
